Source: patent US12421193B2, “GPR52 modulators and methods of use” (Neurocrine Biosciences, Inc., priority 2020, dated 2025)

Biological target: T1, recombinant human GPR52 (Homo sapiens, UniProt Q9Y2T5)
T1 construct: expressed in transfected cells
Assay: TR-FRET cAMP assay (LANCE Ultra cAMP Kit), GPR52 activity
Type: cell-based
Conditions: Flp-In-CHO cells stably expressing recombinant human GPR52; cAMP production, normalized to the positive control
Protocol: TR-FRET cAMP assays were performed using commercially available assay kits (LANCE™ Ultra cAMP Kit). Controls and compounds were solubilized in DMSO using ½ log dilution to generate duplicate 10-point dose response curves in 384-well polypropylene compound plates. Sixty nanoliters of the diluted compounds were transferred into 384-well NBS assay plates and further diluted to 1× with the addition of 2000 cells per well. Flp-In™—CHO cells that stably express recombinant human GPR52.
Cells were harvested with cell stripper and resuspended in Stimulation Buffer (5 mM HEPES, 0.1% bovine serum albumin (BSA), 0.5 mM IBMX, pH 7.4). After thirty minutes incubation at room temperature, detection reagents were added to each well. Plates were then incubated for 30 minutes at room temperature. The LANCE™ Ultra cAMP assay uses time-resolved fluorescence resonance energy transfer (TR-FRET) to detect cAMVP production; this signal was quantified using a Pherastar multi-mode plate reader.
Dose-response curves were generated from the fluorescence counts normalized to the positive control. E EC50 values were obtained using a nonlinear regression curve-fitting program.

T1 sequence (Q9Y2T5 whole entry): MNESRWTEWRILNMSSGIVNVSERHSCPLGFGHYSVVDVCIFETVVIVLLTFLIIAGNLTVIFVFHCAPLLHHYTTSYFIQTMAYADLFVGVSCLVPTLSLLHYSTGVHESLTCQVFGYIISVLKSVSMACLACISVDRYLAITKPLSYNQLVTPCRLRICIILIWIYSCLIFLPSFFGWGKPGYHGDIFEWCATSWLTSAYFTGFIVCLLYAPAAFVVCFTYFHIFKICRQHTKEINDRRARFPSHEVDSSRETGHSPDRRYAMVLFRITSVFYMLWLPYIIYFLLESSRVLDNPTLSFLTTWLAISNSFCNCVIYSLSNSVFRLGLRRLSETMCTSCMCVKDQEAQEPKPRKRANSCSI

| Structure (SMILES) | EC50 [nM] |
| --- | --- |
| Cc1cc(-c2cc(COc3cc(F)c(F)c(F)c3)ccn2)ccc1C(N)=O [Example 57, 4-[4-(3,4,5-trifluorophenoxymethyl)pyridin-2-yl]-2-methyl benzamide] | < 25 |
| Cc1cc(-c2ccnc(COc3ccc(C#N)c(F)c3)c2)ccc1C(N)=O [Example 82, 4-[2-(4-cyano-3-fluorophenoxymethyl)pyridin-4-yl]-2-methylbenzamide] | 25 to 100 |
| COc1cc(OCc2ccnc(-c3ccc(C(N)=O)c(C)c3)c2)ccc1C(F)(F)F [Example 58, 4-{4-[3-methoxy-4-(trifluoromethyl)phenoxymethyl]pyridin-2-yl}-2-methylbenzamide] | 25 to 100 |
| CC(=O)c1ccc(OCc2ccnc(-c3ccc(C(N)=O)c(C)c3)c2)cc1F [Example 60, 4-[4-(4-acetyl-3-fluorophenoxymethyl)pyridin-2-yl]-2-methylbenzamide] | < 25 |
| Cc1cc(-c2cc(COc3ccc(C#N)c(F)c3)ccn2)ccc1C(=O)NCCN(C)C [Example 80, 4-[4-(4-cyano-3-fluorophenoxymethyl)pyridin-2-yl]-N-[2-(dimethylamino)ethyl]-2-methylbenzamide] | < 25 |
| Cc1ccc(OCc2cncc(-c3ccc(C(N)=O)c(C)c3)c2)cc1F [Example 89, 4-[5-(3-fluoro-4-methylphenoxymethyl)pyridin-3-yl]-2-methylbenzamide] | 25 to 100 |
| Cc1cc(-c2ccnc(COc3cc(F)c(F)c(F)c3)c2)ccc1C(N)=O [Example 83, 4-[2-(3,4,5-trifluorophenoxymethyl)pyridin-4-yl]-2-methylbenzamide] | 101 to 1000 |
| Cc1cc(OCc2ccnc(-c3ccc(C(N)=O)c(C)c3)c2)ccc1F [Example 27, 4-[4-(4-fluoro-3-methylphenoxymethyl)pyridin-2-yl]-2-methylbenzamide] | 101 to 1000 |
| Cc1cc(F)ccc1OCc1ccnc(-c2ccc(C(N)=O)c(C)c2)c1 [Example 29, 4-[4-(4-fluoro-2-methylphenoxymethyl)pyridin-2-yl]-2-methylbenzamide] | 101 to 1000 |
| CC(=O)Nc1cccc(OCc2ccnc(-c3ccc(C(N)=O)c(C)c3)c2)c1 [Example 35, 4-[4-(3-acetamidophenoxymethyl)pyridin-2-yl]-2-methylbenzamide] | 101 to 1000 |
| Cc1cc(-c2ccnc(COc3ccc4c(cnn4C)c3)c2)ccc1C(N)=O [Example 87, 4-(2-{[(1-methyl-1H-indazol-5-yl)oxy]methyl}pyridin-4-yl)-2-methyl-benzamide] | 101 to 1000 |
| Cc1cc(-c2cncc(COc3cc(F)cc(F)c3)c2)ccc1C(N)=O [Example 93, 4-[5-(3,5-difluorophenoxymethyl)pyridin-3-yl]-2-methylbenzamide] | 101 to 1000 |
| Cc1cc(-c2cc(COc3ccc(F)c(Cl)c3)ccn2)ccc1C(N)=O [Example 47, 4-[4-(3-chloro-4-fluorophenoxymethyl)pyridin-2-yl]-2-methylbenzamide] | < 25 |
| NC(=O)c1ccc(-c2cc(COc3ccc(C(F)(F)F)cc3)ccn2)cc1C(F)(F)F [Example 78, 4-{4-[4-(trifluoromethyl)phenoxymethyl]pyridin-2-yl}-2-(trifluoromethyl)benzamide] | 25 to 100 |
| Cc1cc(-c2ccnc(COc3ccc(C#N)c(F)c3F)c2)ccc1C(N)=O [Example 84, 4-[2-(4-cyano-2,3-difluorophenoxymethyl)pyridin-4-yl]-2-methylbenzamide] | 101 to 1000 |
| Cc1cc(-c2cc(COC3CCCCC3)ccn2)ccc1C(N)=O [Example 104, 4-{4-[(cyclohexyloxy)methyl]pyridin-2-yl}-2-methylbenzamide] | 101 to 1000 |
| COc1cc(Cl)ccc1OCc1ccnc(-c2ccc(C(N)=O)c(C)c2)c1 [Example 51, 4-[4-(4-chloro-2-methoxyphenoxymethyl)pyridin-2-yl]-2-methylbenzamide] | 25 to 100 |
